# Experimental data reported in US20260373119A1, “NOVEL COMPOUND, AND COMPOSITION FOR PREVENTING OR TREATING HER2-POSITIVE CANCER, COMPRISING SAME” (EWHA UNIVERSITY - INDUSTRY COLLABORATION FOUNDATION, priority 2022, published 2026).
# What was measured:
# [1] = molecular target: MED23 wild-type (FLAG-tagged) (Homo sapiens, UniProt Q9ULK4); assay: LC-MS/MS protein-small molecule interaction, wild-type MED23; format: binding; settings: FLAG pulldown, LC-MS/MS
# Method: HEK293 cells were seeded in a […] and incubated until they reached 70-80% confluency. The cells were transfected with p3Xflag-myc-CMV26-MED23^WT and p3Xflag-myc-CMV26-MED23^D400A/H449G plasmids for 24 hours, followed by lysis to obtain protein extracts. To isolate the candidate compound (YK1) bound to MED23, total lysates were incubated with YK1 for 4 hours and subsequently subjected to pulldown using FLAG-agarose beads (Sigma Aldrich, USA). The precipitated beads were washed at least three times to completely remove unbound compounds. To separate the candidate compound from the precipitated MED23, 50 μL of the sample was extracted with 1 mL of acetonitrile and centrifuged at 13,000 rpm at 4 °C for 10 minutes. The supernatant (1,000 μL) from each sample was transferred to a new tube and dried under nitrogen gas at 37 °C. For YK1 analysis, the residue was dissolved in 50 μL of ACN and vortexed for 10 minutes. […] The mixture was then extracted with 450 μL of ACN by ultrasonic treatment and vortex mixing. The candidate compound bound to MED23 was finally analyzed using an Agilent 6460 triple quadrupole mass spectrometer (Agilent Technologies, USA).
# MED23391-625 fragment = MED23391-625 fragment (Homo sapiens, UniProt Q9ULK4); assay: LC-MS/MS protein-small molecule interaction, MED23 fragments; format: binding
# NCI-N87 cells [2] = assay: cell cycle analysis (FACS); format: cell-based
# Method: (§1) Specifically, 5×10^5 NCI-N87 cells were seeded in 60 mm dishes and cultured until they reached 70-80% confluence. The cells were treated with varying concentrations of the candidate compound and cultured for 8 hours. The cells were treated with trypsin and then washed with cold PBS (pH 7.4). For cell cycle analysis, the cells were fixed with 70% ethanol and cultured at 4 °C for 30 minutes, followed by staining with FxCycle™ PI/RNase staining solution (Invitrogen™, USA). Cell cycle analysis was performed using a fluorescence-activated cell sorting (FACS) device (BD Biosciences, USA).
# NCI-N87 cells [3] = assay: apoptosis analysis (Annexin V, FACS); format: cell-based; settings: dose-dependent
# Method: as §1
# Cells for apoptosis analysis were prepared using the same method as described for the cell cycle analysis. The cells were treated with trypsin, washed with 1×PBS, and resuspended in each sample using the FITC Annexin V Apoptosis Detection Kit I (BD Pharmingen™). Apoptosis was analyzed using a FACS device.
# Ki-67 = assay: JIMT-1 xenograft, Ki-67; format: in vivo, mice; settings: 4 mg/kg, vs TZMB-treated group
# Method: Xenograft mice were generated to evaluate the anticancer effects of the candidate compound. NCI-N87 and JIMT-1 cells (5×10^6 cells), dissolved in 100 μL of 1× phosphate-buffered saline (PBS), were subcutaneously injected into the right flanks of 5-week-old female athymic nude mice (Envigo, USA) or 4-week-old female NOD-SCID mice (Koatech, South Korea). When the tumors reached a volume of 90-100 mm^3, the mice were randomized into designated groups. For the NCI-N87 xenograft, intravenous administration was performed six times at 3-day intervals. For the JIMT-1 xenograft, intraperitoneal administration was performed eight times at 3-day intervals. […] Tumor size changes were monitored until the mean tumor size in the control group reached 2,000-2,500 mm^3. On day 28 for the NCI-N87 xenograft and day 46 for the JIMT-1 xenograft, the mice were sacrificed, and tumors were excised to determine relative tumor sizes. Tumor length (L) and width (W) were measured with calipers, and tumor volume was calculated using the formula: […]
# For immunohistochemistry (IHC) analysis, tumors from the xenograft models were prepared as paraffin-embedded sections. […] The control group was counterstained with hematoxylin, and the IHC staining was evaluated under an optical microscope at 200× magnification.
# MED23 wild-type (FLAG-tagged), sequence (Q9ULK4 whole entry): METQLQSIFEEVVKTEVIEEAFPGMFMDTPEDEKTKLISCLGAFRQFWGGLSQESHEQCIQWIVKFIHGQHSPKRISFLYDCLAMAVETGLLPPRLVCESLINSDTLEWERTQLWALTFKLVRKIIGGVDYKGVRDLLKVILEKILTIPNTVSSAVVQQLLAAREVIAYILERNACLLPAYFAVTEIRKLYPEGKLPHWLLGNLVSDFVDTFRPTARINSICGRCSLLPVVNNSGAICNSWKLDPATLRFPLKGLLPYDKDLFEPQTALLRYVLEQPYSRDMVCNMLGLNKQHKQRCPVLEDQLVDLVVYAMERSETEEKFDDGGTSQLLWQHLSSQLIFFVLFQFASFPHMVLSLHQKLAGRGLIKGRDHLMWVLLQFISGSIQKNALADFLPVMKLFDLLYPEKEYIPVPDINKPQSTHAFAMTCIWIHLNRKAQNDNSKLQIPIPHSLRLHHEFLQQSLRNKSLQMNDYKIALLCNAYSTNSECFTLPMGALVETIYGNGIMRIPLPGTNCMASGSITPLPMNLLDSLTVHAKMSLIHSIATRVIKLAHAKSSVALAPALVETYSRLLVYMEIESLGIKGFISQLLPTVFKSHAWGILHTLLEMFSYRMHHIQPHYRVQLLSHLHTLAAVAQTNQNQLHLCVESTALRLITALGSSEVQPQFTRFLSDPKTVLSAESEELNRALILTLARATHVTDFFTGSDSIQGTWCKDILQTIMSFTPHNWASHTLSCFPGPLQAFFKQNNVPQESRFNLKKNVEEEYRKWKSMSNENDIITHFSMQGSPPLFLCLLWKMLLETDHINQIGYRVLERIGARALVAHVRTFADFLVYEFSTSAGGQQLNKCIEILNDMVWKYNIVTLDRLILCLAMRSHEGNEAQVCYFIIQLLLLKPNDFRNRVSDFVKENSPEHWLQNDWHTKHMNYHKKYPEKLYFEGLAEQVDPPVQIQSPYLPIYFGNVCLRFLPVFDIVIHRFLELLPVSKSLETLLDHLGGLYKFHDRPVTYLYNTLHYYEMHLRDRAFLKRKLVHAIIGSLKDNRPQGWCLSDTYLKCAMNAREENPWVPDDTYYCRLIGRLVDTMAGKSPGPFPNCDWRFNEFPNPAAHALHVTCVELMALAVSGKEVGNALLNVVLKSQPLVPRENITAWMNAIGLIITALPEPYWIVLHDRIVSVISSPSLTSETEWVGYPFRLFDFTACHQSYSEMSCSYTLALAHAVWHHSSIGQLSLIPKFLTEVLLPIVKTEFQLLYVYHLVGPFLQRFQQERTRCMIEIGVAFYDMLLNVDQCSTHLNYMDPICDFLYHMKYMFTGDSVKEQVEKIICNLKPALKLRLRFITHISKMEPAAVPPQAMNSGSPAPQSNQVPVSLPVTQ
# MED23391-625 fragment, sequence (Q9ULK4 391-625): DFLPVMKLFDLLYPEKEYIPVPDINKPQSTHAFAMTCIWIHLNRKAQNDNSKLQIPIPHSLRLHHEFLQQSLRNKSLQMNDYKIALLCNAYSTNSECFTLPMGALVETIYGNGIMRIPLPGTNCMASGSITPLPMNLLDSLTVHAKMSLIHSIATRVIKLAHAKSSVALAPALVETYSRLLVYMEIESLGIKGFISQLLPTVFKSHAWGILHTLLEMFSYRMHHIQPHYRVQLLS
compound,measurement,setting,value
"CC(=O)N1N=C(c2cccc(O)c2)CC1c1ccc(Cl)cc1 (stereo not drawn) [Compound 15, 1-[5-(4-Chlorophenyl)-3-(3-hydroxyphenyl)-4,5-dihydropyrazol-1-yl]-ethanone]",binding to wild-type MED23,[1],able to bind to wild-type MED23
same,interaction with MED23 fragments,MED23391-625 fragment,specifically interacted with the MED23391-625 fragment
same,"G1 arrest, S and G2/M phases",NCI-N87 cells [2],"promoted overall G1 arrest, accompanied by a decrease in the S and G2/M phases"
same,G1 cell fraction,NCI-N87 cells [2]; time- and dose-dependent,significant increase in the G1 cell fraction
same,apoptosis,NCI-N87 cells [3],significantly promoted apoptosis in a dose-dependent manner
same,proliferation marker Ki-67,Ki-67,significantly reduced in the candidate compound-treated group compared to the TZMB-treated group
